Measured values as given in ChEMBL document CHEMBL5579887, “Structure-Activity Relationship Studies of Substituted 2-Phenyl-1,2,4-triazine-3,5(2H,4H)-dione Analogues: Development of Potent eEF2K Degraders against Triple-Negative Breast Cancer” (J Med Chem, 2024).
In brackets after ≈: the same amount, converted by molar mass.

Assays:
MDA-MB-231 [1] = assay: cells; conditions: Homo sapiens, MDA-MB-231, 72 h, read-out: INH
Description: Antitumor activity against human MDA-MB-231 cells assessed as inhibition of cell viability by measuring inhibition rate at 20 uM measured after 72 hrs by CCK-8 assay relative to control

[2] = Kinetic solubility of the compound in PBS buffer at pH 7.4 measured by HPLC analysis
MDA-MB-231 [3] = assay: cells; conditions: Homo sapiens, MDA-MB-231, 72 h, read-out: INH; remark: listed apart in the source
Description: Antitumor activity against human MDA-MB-231 cells assessed as inhibition of cell viability by measuring inhibition rate at 1 uM measured after 72 hrs by CCK-8 assay relative to control

MDA-MB-231 [4] = assay: cells; conditions: Homo sapiens, MDA-MB-231, 72 h
Description: Antitumor activity against human MDA-MB-231 cells assessed as inhibition of cell viability by measuring inhibition rate measured after 72 hrs by CCK-8 assay relative to control

[5] = target: T1, Eukaryotic elongation factor 2 kinase (Homo sapiens, UniProt O00418); assay: Binding affinity to eEF2K (unknown origin) assessed as dissociation constant measured by SPR analysis
T1 sequence (O00418 whole entry): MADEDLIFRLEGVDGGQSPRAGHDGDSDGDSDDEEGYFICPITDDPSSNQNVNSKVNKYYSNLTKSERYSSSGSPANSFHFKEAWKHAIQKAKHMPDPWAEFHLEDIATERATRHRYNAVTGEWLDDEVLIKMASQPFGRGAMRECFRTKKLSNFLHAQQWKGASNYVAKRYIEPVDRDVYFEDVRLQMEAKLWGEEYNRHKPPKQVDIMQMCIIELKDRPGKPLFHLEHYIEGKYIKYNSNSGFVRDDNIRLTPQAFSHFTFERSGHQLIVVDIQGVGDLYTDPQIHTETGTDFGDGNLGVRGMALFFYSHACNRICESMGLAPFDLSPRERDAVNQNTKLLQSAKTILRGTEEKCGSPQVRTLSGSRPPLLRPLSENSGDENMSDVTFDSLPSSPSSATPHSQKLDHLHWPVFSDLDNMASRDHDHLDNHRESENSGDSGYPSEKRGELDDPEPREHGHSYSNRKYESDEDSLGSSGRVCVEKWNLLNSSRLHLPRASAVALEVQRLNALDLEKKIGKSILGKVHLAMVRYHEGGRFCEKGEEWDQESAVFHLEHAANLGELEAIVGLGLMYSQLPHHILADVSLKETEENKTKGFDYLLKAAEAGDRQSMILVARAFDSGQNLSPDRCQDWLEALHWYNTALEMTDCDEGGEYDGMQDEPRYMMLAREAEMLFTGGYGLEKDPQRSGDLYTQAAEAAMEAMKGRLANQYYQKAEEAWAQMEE

[6] = In vivo antitumor activity against human MDA-MB-231 cells xenografted in female nude mouse assessed as tumor growth inhibition at 10 mg/kg, ip administered every other day relative to control; conditions: MDA-MB-231, read-out: TGI
MDA-MB-231 [7] = assay: cells; conditions: Homo sapiens, MDA-MB-231, 72 h, read-out: INH; remark: listed apart in the source
Description: Antitumor activity against human MDA-MB-231 cells assessed as inhibition of cell viability at 100 nM measured after 72 hrs by CCK-8 assay

Structure (SMILES) | inhibition at 20 µM (MDA-MB-231 [1]) [%] | solubility kinetic [2] [µM] | inhibition at 1 µM (MDA-MB-231 [3]) [%] | IC50 (MDA-MB-231 [4]) [nM] | Kd [5] [nM] | inhibition in vivo at 10 mg/kg [6] [%] | inhibition at 0.1 µM (MDA-MB-231 [7]) [%]
CCn1c(=O)c2cc(C(N)=O)c(N)nc2n(C2CC2)c1=O | 4.67 |  |  |  |  |  | 
Cc1ccc(-n2nc(C(=O)Nc3ccc(CN4CCOCC4)cc3)c(=O)n(Cc3ccccc3)c2=O)cc1C | 52.8 | 15 (≈ 7.88 µg/mL) |  |  |  |  | 
COc1cccc(Cn2c(=O)c(C#N)nn(-c3ccc(C)c(C)c3)c2=O)c1 | 97.4 | 103 (≈ 37.3 µg/mL) | 48.9 |  |  |  | 
Cc1ccc(-n2nc(C#N)c(=O)n(Cc3ccncc3)c2=O)cc1C | 0.27 |  |  |  |  |  | 
Cc1ccc(-n2nc(C(=O)N3CCC[C@@H](CNC(=O)OC(C)(C)C)C3)c(=O)n(Cc3cccc(F)c3)c2=O)cc1C | 99.3 | 57 (≈ 32.2 µg/mL) | 92.1 | 232 |  |  | 
Cc1ccc(-n2nc(C#N)c(=O)n(Cc3ccccc3F)c2=O)cc1C | 93.5 |  | -3.59 |  |  |  | 
Cc1ccc(-n2nc(C#N)c(=O)n(Cc3cccc(C(F)(F)F)c3)c2=O)cc1C | 92.9 | 67 (≈ 26.8 µg/mL) | 19.3 |  |  |  | 
Cc1ccc(-n2nc(C(=O)N3CCC(C(=O)OC(C)(C)C)CC3)c(=O)n(Cc3cccc(F)c3)c2=O)cc1C | 90.4 | 19 (≈ 10.2 µg/mL) | 90.7 | 279 |  |  | 
Cc1ccc(-n2nc(C#N)c(=O)n(Cc3cccnc3)c2=O)cc1C | 34.8 | 106 (≈ 35.3 µg/mL) |  |  |  |  | 
Cc1ccc(-n2nc(C(=O)N3CCCC(CNC(=O)OC(C)(C)C)C3)c(=O)n(Cc3cccc(F)c3)c2=O)cc1C (stereo not drawn) | 96 | 44 (≈ 24.9 µg/mL) | 91.2 | 102 | 436 |  | 
Cc1ccc(-n2nc(C(=O)N3CCC[C@H](CNC(=O)OC(C)(C)C)C3)c(=O)n(Cc3cccc(F)c3)c2=O)cc1C | 99.9 | 24 (≈ 13.6 µg/mL) | 92.2 | 261 |  |  | 
Cc1ccc(-n2nc(C(=O)N3CCNCC3)c(=O)n(Cc3ccccc3)c2=O)cc1C | 96.7 |  |  | > 1000 |  |  | 
Cc1ccc(-n2nc(C(=O)N3CCCCC3)c(=O)n(Cc3ccccc3F)c2=O)cc1C | 99.2 | 20 (≈ 8.73 µg/mL) | 93.5 | 94.1 |  |  | 
Cc1ccc(-n2nc(C(=O)N3CCC[C@@H](NC(=O)OC(C)(C)C)C3)c(=O)n(Cc3cccc(F)c3)c2=O)cc1C | 98.3 | 129 (≈ 71.2 µg/mL) | 74.1 | 478 |  |  | 
Cc1ccc(-n2nc(C(=O)N3CCCCC3)c(=O)n(Cc3ccc(F)cc3)c2=O)cc1C | 94.1 | 96 (≈ 41.9 µg/mL) | 63.8 | 771 |  |  | 
Cc1ccc(-n2nc(C(=O)N3CCOCC3)c(=O)n(Cc3ccccc3)c2=O)cc1C | 95.8 | 44 (≈ 18.5 µg/mL) | 70.1 | 659 |  |  | 
O=C(/C=C/c1cccc(C(F)(F)F)c1)c1cc2ccccc2oc1=O |  |  |  | ~1000 |  |  | 
Cc1ccc(-n2nc(C(=O)NCCN3CCOCC3)c(=O)n(Cc3ccccc3)c2=O)cc1C | 60.9 |  |  |  |  |  | 
Cc1ccc(-n2nc(C#N)c(=O)n(Cc3ccccc3)c2=O)cc1C | 96.4 |  | 58.1 |  |  |  | 
Cc1ccc(-n2nc(C(=O)N3CCCN(C(=O)OC(C)(C)C)C3)c(=O)n(Cc3cccc(F)c3)c2=O)cc1C | 96 | 54 (≈ 29 µg/mL) | 39.9 |  |  |  | 
Cc1ccc(-n2nc(C(=O)N3CCC(F)(F)CC3)c(=O)n(Cc3cccc(F)c3)c2=O)cc1C | 84.3 |  | 58.6 |  |  |  | 
CC#CCn1c(=O)c(C#N)nn(-c2ccc(C)c(C)c2)c1=O | 85.5 | 71 (≈ 20.9 µg/mL) |  |  |  |  | 
Cc1ccc(-n2nc(C(=O)N3CCCNCC3)c(=O)n(Cc3ccccc3)c2=O)cc1C | 53.6 |  |  |  |  |  | 
Cc1ccc(-n2nc(C#N)c(=O)n(Cc3ccccn3)c2=O)cc1C | -4.94 |  |  |  |  |  | 
Cc1ccc(-n2nc(C(=O)N3CCN(C(=O)OC(C)(C)C)CC3)c(=O)n(Cc3cccc(F)c3)c2=O)cc1C | 95 |  |  |  |  |  | 
Cc1ccc(-n2nc(C(=O)N3CCCC3)c(=O)n(Cc3ccccc3)c2=O)cc1C | 95.4 | 30 (≈ 12.1 µg/mL) | 83.4 | 288 |  |  | 

Structure (SMILES) | inhibition at 20 µM (MDA-MB-231 [1]) [%] | solubility kinetic [2] [µM] | inhibition at 1 µM (MDA-MB-231 [3]) [%] | IC50 (MDA-MB-231 [4]) [nM] | Kd [5] [nM] | inhibition in vivo at 10 mg/kg [6] [%] | inhibition at 0.1 µM (MDA-MB-231 [7]) [%]
Cc1ccc(-n2nc(C(=O)N3CCC3)c(=O)n(Cc3ccccc3)c2=O)cc1C | 98.7 |  | 17.7 |  |  |  | 
Cc1ccc(-n2nc(C#N)c(=O)n(Cc3ccc(F)cc3)c2=O)cc1C | 93.6 |  | -1.93 |  |  |  | 
Cc1ccc(-n2nc(C(=O)NC3CCN(Cc4ccccc4)CC3)c(=O)n(Cc3ccccc3)c2=O)cc1C | 74.9 |  |  |  |  |  | 
Cc1ccc(-n2nc(C(=O)N3CCN(c4ccccc4)CC3)c(=O)n(Cc3ccccc3)c2=O)cc1C | 79 |  |  |  |  |  | 
Cc1ccc(-n2nc(C(=O)N3CCCCC3)c(=O)n(Cc3cccc(F)c3)c2=O)cc1C | 99.6 | 17 (≈ 7.42 µg/mL) | 93.3 | 168 |  |  | 
Cc1ccc(-n2nc(C#N)c(=O)n(Cc3cccc(F)c3)c2=O)cc1C | 91.1 | 15 (≈ 5.26 µg/mL) | 23.2 |  |  |  | 
Cc1ccc(-n2nc(C(=O)N3CCN(C(=O)C4CC4)CC3)c(=O)n(Cc3cccc(F)c3)c2=O)cc1C | 22.2 |  |  |  |  |  | 
Cc1ccc(-n2nc(C(=O)N3CCC(F)(F)CC3)c(=O)n(Cc3ccccc3)c2=O)cc1C | 96.8 | 36 (≈ 16.4 µg/mL) | 61.5 | 484 |  |  | 
COc1ccccc1CNC(=O)c1nn(-c2ccc(C)c(C)c2)c(=O)n(Cc2ccccc2)c1=O | 17.5 | 25 (≈ 11.8 µg/mL) |  |  |  |  | 
Cc1ccc(-n2nc(C(=O)N3CCCCCC3)c(=O)n(Cc3ccccc3)c2=O)cc1C | 99.7 | 62 (≈ 26.8 µg/mL) | 96 | 45.9 |  |  | 
CCN1CCN(C(=O)c2nn(-c3ccc(C)c(C)c3)c(=O)n(Cc3ccccc3)c2=O)CC1 | 93.3 |  |  | > 1000 |  |  | 
CCOC(=O)C1CCCN(C(=O)c2nn(-c3ccc(C)c(C)c3)c(=O)n(Cc3cccc(F)c3)c2=O)C1 (stereo not drawn) | 98.4 | 90 (≈ 45.8 µg/mL) | 87.6 | 131 |  |  | 
Cc1ccc(-n2nc(C(=O)N(C)C)c(=O)n(Cc3ccccc3)c2=O)cc1C | 89.8 | 56 (≈ 21.2 µg/mL) | 64 | 867 |  |  | 
Cc1ccc(-n2nc(C(=O)N3C4CCC3CN(C(=O)OC(C)(C)C)C4)c(=O)n(Cc3cccc(F)c3)c2=O)cc1C | 14.5 | 99 (≈ 55.8 µg/mL) |  |  |  |  | 
Cc1ccc(-n2nc(C(=O)N3CCCN(C(=O)OC(C)(C)C)CC3)c(=O)n(Cc3cccc(F)c3)c2=O)cc1C | 98.3 | 41 (≈ 22.6 µg/mL) | 71.1 | 611 |  |  | 
Cc1ccc(-n2nc(C(=O)N3CCC(F)CC3)c(=O)n(Cc3ccccc3)c2=O)cc1C | 99.3 | 57 (≈ 24.9 µg/mL) | 89.5 | 132 |  |  | 
Cc1ccc(-n2nc(C(=O)N3CC(N(C)C(=O)OC(C)(C)C)C3)c(=O)n(Cc3cccc(F)c3)c2=O)cc1C | 98.5 |  |  |  |  |  | 
Cc1ccc(-n2nc(C(=O)N3CCC[C@H](NC(=O)OC(C)(C)C)C3)c(=O)n(Cc3cccc(F)c3)c2=O)cc1C | 98 |  | 8.56 |  |  |  | 
CCOC(=O)N1CCN(C(=O)c2nn(-c3ccc(C)c(C)c3)c(=O)n(Cc3cccc(F)c3)c2=O)CC1 | 95.5 |  |  |  |  |  | 
Cc1ccc(-n2nc(C(=O)N3CCN(C(=O)N(C)C)CC3)c(=O)n(Cc3cccc(F)c3)c2=O)cc1C | 12.8 |  |  |  |  |  | 
Cc1ccc(-n2nc(C(=O)N3CC(NC(=O)OC(C)(C)C)C3)c(=O)n(Cc3cccc(F)c3)c2=O)cc1C | 73 |  |  |  |  |  | 
Cc1ccc(-n2nc(C(=O)N3CCCN(C)CC3)c(=O)n(Cc3ccccc3)c2=O)cc1C | 97.2 |  |  | > 1000 |  |  | 
Cc1ccc(-n2nc(C(=O)N3CC3)c(=O)n(Cc3ccccc3)c2=O)cc1C | 72.7 | 47 (≈ 17.7 µg/mL) |  |  |  |  | 
Cc1ccc(-n2nc(C(=O)NCc3ccccn3)c(=O)n(Cc3ccccc3)c2=O)cc1C | 71.2 |  |  |  |  |  | 
Cc1ccc(-n2nc(C(=O)NCCN(C)C)c(=O)n(Cc3ccccc3)c2=O)cc1C | 97.7 |  |  | > 1000 |  |  | 
CC(=O)O[C@H]1C(=O)[C@@]2(C)[C@H]([C@H](OC(=O)c3ccccc3)[C@]3(O)C[C@H](OC(=O)[C@H](O)[C@@H](NC(=O)c4ccccc4)c4ccccc4)C(C)=C1C3(C)C)[C@]1(OC(C)=O)CO[C@@H]1C[C@@H]2O [PACLITAXEL] |  |  | 88.9 | 38.3 |  | 52.7 | 82.4
